Results as given in article PMC4010497, “Synthesis and Evaluation of Fluorine-Substituted Phenyl Acetate Derivatives as Ultra-Short Recovery Sedative/Hypnotic Agents” (PLoS ONE, 2014).

How the values were obtained:
GABAA receptor = assay: GABAA radioligand binding assay ([3H]EBOB); details: 50 µM compound, 0.5 nM [3H]EBOB, rat frontoparietal cortex
Protocol: All the new compounds were dissolved in 5% DMSO.
Specific binding was determined in the presence of compounds.
Membrane suspensions were thawed and centrifuged in incubation buffer at 10,000×g for 10 min and washed by a similar centrifugation. For displacement studies, membrane suspensions (5 mg original wet wt./ml) were incubated with 0.5 nM [^3H]EBOB ([…], Perkin Elmer Life Sciences, Boston, MA, USA) in the absence or presence of 50 µM of new compounds or reference drug for 2 h at 25°C. Nonspecific binding was determined in the presence of 10 µM Bicuculline. Bicuculline and picrotoxin were frequently used to determine the nonspecific binding when [3H]EBOB as radioligand [17]. Triplicate 1 ml samples were filtered on Whatman GF/B filters under vacuum with a Brandel Harvester and washed with 3×3 ml ice-cold buffer.

[1] = Octanol:water partition coefficient; type: physicochemical; details: water buffered with 10 mm Tris (pH 7.4)
Protocol: One mg of each hypnotic was added to 10 ml of water buffered with 10 mm Tris (pH 7.4) and 1 ml of octanol. The mixture was stirred overnight and then centrifuged to fully separate the organic and aqueous phases. The relative hypnotic concentration in each phase (i.e., the partition coefficient) was determined by high-performance liquid chromatography as described for blood.

mice [2] = assay: animal or person; type: in vivo; details: mice; for ED50: Mus musculus, IV over 10 s, 95% confidence limits, read-out: HD50 (the source's name); for Duration of LORR: IV 2× HD50, mean ± SD (n = 10); for Onset time: IV, mean ± SD (n = 10)
Protocol: All tests were performed during the light period. Groups of mice, rats and rabbits were injected intravenously (lateral tail vein) over 10 s with each dose of test compound, placed in separate boxes to reduce external stimuli and assessed for the loss of righting reflex. Dosing was performed using mg/kg scheme. A set of dose levels was chosen, and depending on whether the loss of righting reflex was observed, extra doses were introduced to provide data for the loss of righting reflex over a narrow dose range to allow potency calculations. From the percentage of mice, rats and rabbits in each group showing loss of righting reflex for ≥30 s, a probit analysis (SAS Institute) was performed to obtain an HD50 for each compound with 95% confidence limits.
Immediately following the injection, the mice, rats and rabbits were tested for loss of righting reflex. […] Once a loss was observed, the interval between the loss of righting reflex and the return to righting reflex was recorded. The anesthetized animals recovered righting reflexes spontaneously. To compare the duration of LORR of each compound at equipotent doses, groups of mice, rats and rabbits were injected with each compound at 2× HD50 over 10 s.
Time to walk was the time required after righting before mice and rabbits walked from the center to the periphery of a 30-cm diameter dise.
The rotarod test was conducted to evaluate the recovery to the motor coordination. Before the LORR test, mice were trained for 2 consecutive days. Trained mice could maintain their balance on rod for more than 2 mins. After the mice could walk from the center to the periphery of a 30-cm diameter dise, they were put on the rotarod. Mice were classified as behavioral recovery when, on being placed on the rod, they could maintain their balance for 20 s. The time to behavioral recovery was the time required after mice walked from the centre to the periphery of a 30-cm diameter disc before they could maintain their balance on rod for 20 s.

mice [3] = assay: in vivo; details: LD50/HD50
Protocol: (§1) The LD50 was determined in mice, rats, and rabbits and the TI was calculated as LD50/HD50.

in vivo = details: mouse, in vivo; mice, 95% confidence limits
Protocol: as §1

SMILES | GABAA binding (50 µmol) (Mean ± SD), percentage of inhibition (GABAA receptor) [%] | Octanol:Water Partition (Coefficient ± SD) [1] | ED50 (mice [2]) [mg/kg] | Duration of LORR (mice [2]) [s] | Onset time (mice [2]) [s] | TI (mice [3]) | LD50 (in vivo) [mg/kg] | anesthetic potency (in words) (mice [2]) | Time to walk (mice [2]; 2× HD50) [s] | time to behavioral recovery (mice [2]; 2× HD50, rotarod) [s]
CCOC(=O)Cc1ccc(OCC(=O)N(CC)CC)c(OCC(F)(F)F)c1 [Compound 5d, ethyl 2-(4-(2-(diethylamino)-2-oxoethoxy)-3-(2,2,2-trifluoroethoxy)phenyl)acetate] | 67.7±3.2 | 778±77 | 47.4 | 181.9 ± 14.3 | 25.2 ± 3.8 | 5.5 | 260 | – | – | –
CCN(CC)C(=O)COc1ccc(CC(=O)OCCC(F)(F)F)cc1OC [Compound 5h, 3,3,3-trifluoropropyl 2-(4-(2-(diethylamino)-2-oxoethoxy)-3-methoxyphenyl)acetate] | 80.3±7.6 | 792±36 | 25.6 | 69.3 ± 7.8 | 7.5 ± 1.2 | – | – | – | – | –
CCN(CC)C(=O)COc1ccc(CC(=O)OCC(F)(F)F)cc1OCC(F)(F)F [Compound 5f, 2,2,2-trifluoroethyl 2-(4-(2-(diethylamino)-2-oxoethoxy)-3-(2,2,2-trifluoroethoxy)phenyl)acetate] | 45.4±4.3 | 1452±156 | – | – | – | – | – | poor anesthetic potency | – | –
CCCOC(=O)Cc1ccc(OCC(=O)N(CC)CC)c(OCC(F)(F)F)c1 [Compound 5e, propyl 2-(4-(2-(diethylamino)-2-oxoethoxy)-3-(2,2,2-trifluoroethoxy)phenyl)acetate] | 72.2±6.5 | 872±65 | 43.8 | 224.6 ± 19.5 | 23.4 ± 4.6 | 5.7 | 250 | – | – | –
CCN(CC)C(=O)COc1ccc(CC(=O)OCC(F)(F)F)cc1OC(F)(F)F [Compound 5c, 2,2,2-trifluoroethyl 2-(4-(2-(diethylamino)-2-oxoethoxy)-3-(trifluoromethoxy)phenyl)acetate] | 30.4±3.5 | 3427±130 | – | – | – | – | – | poor anesthetic potency | – | –
CCOc1cc(CC(=O)OC(C)C(F)(F)F)ccc1OCC(=O)N(CC)CC (centres unmarked) [Compound 5l, 1,1,1-trifluoropropan-2-yl 2-(4-(2-(diethylamino)-2-oxoethoxy)-3-ethoxyphenyl)acetate] | 79.5±10.0 | 2857±400 | 20.7 | 121.2 ± 11.5 | 7.3 ± 1.1 | 5.1 | 103 | – | – | –
CCN(CC)C(=O)COc1ccc(CC(=O)OC(C)C(F)(F)F)cc1OC (centres unmarked) [Compound 5i, 1,1,1-trifluoropropan-2-yl 2-(4-(2-(diethylamino)-2-oxoethoxy)-3-methoxyphenyl)acetate] | 81.6±10.5 | 1857±124 | 21.1 | 80.1 ± 9.3 | 7.2 ± 0.5 | 5.5 | 112 | – | – | –
CCN(CC)C(=O)COc1ccc(CC(=O)OCC(F)(F)F)cc1OC [Compound 5g, 2,2,2-trifluoroethyl 2-(4-(2-(diethylamino)-2-oxoethoxy)-3-methoxyphenyl)acetate] | 87.2±5.7 | 597±68 | 59.6 | 44.8 ± 2.1 | 6.2 ± 0.4 | 6.1 | 363 | – | 22.5 ± 6.9 | 46.5 ± 8.5
CCOc1cc(CC(=O)OCCC(F)(F)F)ccc1OCC(=O)N(CC)CC [Compound 5k, 3,3,3-trifluoropropyl 2-(4-(2-(diethylamino)-2-oxoethoxy)-3-ethoxyphenyl)acetate] | 74.0±6.3 | 667±102 | 29.2 | 65.6 ± 6.8 | 7.6 ± 0.9 | – | – | – | – | –
